The text below walks through data of US9877947B2, “C-terminal HSP90 inhibitors to treat pituitary adenomas” (priority 2013, dated 2018).

Common to all, as to type: cell-based
Data set [1] has as its system corticotroph tumor cell line AtT-20. The experiment in a line: Proliferation assay (WST-1 assay). To be noted: 96 hours treatment, different doses, WST-1, vs vehicle = 100%. How it is done: AtT-20 cells were treated for 96 hours with different doses of (A) 17-AAG, (B) silibinin, or (C) novobiocin.
Cell proliferation was measured with the WST-1 proliferation assay (Roche Applied Science). This assay measures the activity of the mitochondrial succinate dehydrogenase. After 4 days of treatment with different HSP90 inhibitors, the WST-1 reagent was added to AtT-20 cell cultures in 96-well plates to a final dilution of 1:10. The cells were incubated for 2 hours and then the absorbance of the reaction product was measured with an ELISA reader at 440 nm, following the manufacturer's instructions.

Data set [2] relates to GR (glucocorticoid receptor) protein. The experiment in a line: Western blot, induction of GR degradation. The following applies: AtT-20 cells. The procedure: (§1) AtT-20 cells were treated with (A) 17-AAG, (B) silibinin, or (C) novobiocin. At the end of the treatment, the GR, Cdk1 and actin proteins were detected by Western blot.
(§2) AtT-20 cells in 6-well plates were treated with different HSP90 inhibitors for the times indicated in each experiment. At the end of the treatment, cell lysates were prepared in lysis buffer supplemented with protease and phosphatase inhibitor cocktail (Roche). Samples of the lysates were separated by PAGE and blotted onto membranes using standard western blot procedures with gels and buffers from Invitrogen. After blocking the membranes with 5% non-fat dry milk, primary antibodies against GR (H-300, Santa Cruz), Cdk1 (BD Transduction Laboratories), and actin (Cell Signalling) were added. Anti-mouse and anti-rabbit horseradish peroxidase-conjugated secondary antibodies were used to detect the primary antibodies. The detection was carried out using Lumilight (Roche) or ECL-Plus (Thermo Scientific).
(A western blot detects proteins with antibodies after separation by electrophoresis.)

Another data set relates to Cdk1. As to the kind of experiment: Western blot, Cdk1 degradation. To be noted: AtT-20 cells. The procedure: as §1, §2
For data set [3], the system named is GR (glucocorticoid receptor). As to the kind of experiment: Evaluation of GR activity (MTV-Luc reporter). The following applies: AtT-20 cells, 72 hours, in combination with dexamethasone. The procedure: AtT-20 cells were treated for 72 hours with different doses of (A) 17-AAG, (B) silibinin, or (C) novobiocin. At the end of the treatment, GR activity was measured by transfection of the reporter construct MTV-luc.
AtT-20 cells (3×10^5) were transfected for 3 hours with 1 μg of the MTV-Luc reporter plasmid in 6-well plates. Cell transfection was performed with SuperFect (Qiagen GmbH). After an overnight incubation in culture medium with 10% fetal calf serum, the cells were treated with different HSP90 inhibitors in combination with dexamethasone. Luciferase activity in cell lysates was measured with a Berthold luminometer after addition of luciferin and ATP. Transfection efficiency was determined using the Rous sarcoma virus-β-gal construct. Data are expressed as the ratio of luciferase activity to β-gal activity.

A further data set deals with AtT-20 cells. As to the kind of experiment: Evaluation of ACTH secretion (RIA). The following applies: for ACTH secretion: 48 hours, plus dexamethasone 100 nM. The procedure: AtT-20 cells were treated for 48 hours with the glucocorticoid dexamethasone (100 nM) plus different doses of 17-AAG or silibinin, as indicated in the figure. At the end of the treatment, ACTH was measured by RIA.
AtT-20 cells were treated for 72 hours with 10 μM silibinin in combination with different doses of octreotide, as indicated in the figure.
AtT-20 cells were seeded in 96-well plates in cell culture medium containing dexamethasone to mimic the high glucocorticoid concentration in the blood of patients with Cushing's disease. At the end of the treatment, the cell culture supernatants were collected and frozen. ACTH secreted into the cell culture medium was measured by radio-immunoassay (RIA) in comparison with known amounts of ACTH standards diluted in the same medium. […] The bound and free fractions were separated by centrifugation with charcoal and the radioactivity was measured in a beta-counter.

The next data set relates to GH3 prolactinoma cells. The experiment in a line: Evaluation of prolactin secretion (RIA). To be noted: 48 hours. How it is done:
10,000 GH3 prolactinoma cells obtained from the American Type Culture Collection (Rockville, Md.) were seeded onto 96-well plates in DMEM with 10% fetal calf serum. After 24 hours the medium was changed and the attached cells were treated with different doses of the HSP90 inhibitors 17-AAG or silibinin, as indicated in FIG. 10. After 48 hours, culture supernatants were collected and the concentration of prolactin was measured by RIA.

Data set [4] concerns GH3 somatotroph adenoma cells. The experiment in a line: Evaluation of growth hormone secretion (RIA). To be noted: 48 hours. The procedure: 10,000 GH3 somatotroph adenoma cells obtained from the American Type Culture Collection (Rockville, Md.) were seeded onto 96-well plates in DMEM with 10% fetal calf serum. After 24 hours the medium was changed and the attached cells were treated with different doses of the HSP90 inhibitors 17-AAG or silibinin, as indicated in the FIG. 11. After 48 hours, culture supernatants were collected and the concentration of growth hormone was measured by RIA.

The next data set concerns GH3 cells. The experiment in a line: Cell-viability assay WST-1 (toxicity). A general note: Formazan colour is commonly taken as a measure of viable cells.
Where [5] appears, read: WST-1, growth hormone experiment (Example 07).
Setting [6] is: WST-1, prolactin experiment (Example 06).

In the case of `CO[C@@H]1[C@@H](OC(N)=O)[C@@H](O)[C@H](Oc2ccc3c(O)c(NC(=O)c4ccc(O)c(CC=C(C)C)c4)c(=O)oc3c2C)OC1(C)C` [novobiocin], in data set [1], the “proliferation of AtT-20 cells” value is on record as “strongly inhibit the proliferation”. In data set [2], the GR degradation entry was “did not produce this effect”. For the same compound, the Cdk1 degradation result in the data set with Cdk1 was “induce degradation of Cdk1”. Also, in data set [3], the “transcriptional activity of GR” value is “increased the transcriptional activity of GR”.

`COc1cc([C@H]2Oc3cc([C@H]4Oc5cc(O)cc(O)c5C(=O)[C@@H]4O)ccc3O[C@@H]2CO)ccc1O` [silibinin, (2R,3R)-3,5,7-trihydroxy-2-[(2R,3R)-3-(4-hydroxy-3-methoxyphenyl)-2-(hydroxymethyl)-2,3-dihydrobenzo[b][1,4]dioxin-6-yl]chroman-4-one]: in data set [1], the “proliferation of AtT-20 cells” value was “strongly inhibit the proliferation”. Moreover, the GR degradation entry in data set [2] is on record as “did not produce this effect”. Besides, the Cdk1 degradation entry in the data set on Cdk1 is “induce degradation of Cdk1”. In addition, the “transcriptional activity of GR” value in data set [3] was “increased the transcriptional activity of GR”. In addition, in the data set with AtT-20 cells, the ACTH secretion entry is “inhibits ACTH secretion”. Moreover, the “ACTH secretion in combination with octreotide” value with AtT-20 cells (72 hours, 10 μM silibinin plus sub-optimal concentrations of octreotide) is reported as “increases the inhibition of ACTH secretion”. Besides, the prolactin secretion entry in the data set on GH3 prolactinoma cells is “significantly inhibited the secretion of prolactin”. In data set [4], the growth hormone secretion entry is reported as “significantly inhibited the secretion of growth hormone”. Also, the “toxicity for GH3 cells” value in the data set on GH3 cells (setting [5]) is “no toxicity was observed, even at high concentrations”; in the data set on GH3 cells (setting [6]) it was “no toxicity was observed, even at high concentrations”.

Turning to `C=CCNC1=C2C[C@@H](C)C[C@H](OC)[C@H](O)[C@@H](C)/C=C(\C)[C@H](OC(N)=O)[C@@H](OC)/C=C\C=C(/C)C(=O)NC(=CC1=O)C2=O` [17-AAG, 17-N-Allylamino-17-demethoxygeldanamycin], the “proliferation of AtT-20 cells” value in data set [1] is “strongly inhibit the proliferation”. Further, the GR degradation entry in data set [2] is given as “induces GR degradation”. In addition, in the data set on Cdk1, the Cdk1 degradation result is reported as “induce degradation of Cdk1”. Moreover, in data set [3], the “transcriptional activity of GR” value is recorded as “inhibited this activity”. Besides, the ACTH secretion entry in the data set on AtT-20 cells is given as “has no effect on ACTH secretion”. The prolactin secretion result with GH3 prolactinoma cells is on record as “minimally inhibited prolactin secretion only at a concentration of 1 μM”. In addition, in data set [4], the growth hormone secretion entry is listed as “did not inhibit growth hormone secretion at any of the tested concentrations”. Also, the “toxicity for GH3 cells” value with GH3 cells (setting [5]) and in the data set with GH3 cells (setting [6]) was “Higher concentrations of 17-AAG were toxic” each time.
